Where “and” joins values, the source holds several entries; their conditions need not be identical. Identical values can stand only once. Toxic doses and inconclusive results are not listed.
Test system: P388 leukemia ip, CD2F1 mice, survival T/C
Test: NCI In Vivo Anticancer Drug Screen. Data for tumor model P388 Leukemia (intraperitoneal) in CD2F1 (CDF1) mice
Settings: endpoint: median survival time, higher = longer survival
Outline: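 Mice carrying the transplanted tumor received test compound or vehicle. Survival was recorded in each group, and the value is the treated-group measurement divided by that of the vehicle-treated control group.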

[1] = dose: 100.0 mg/kg/injection, schedule: Q04DX003 (ip), vehicle: saline with Tween-80
[2] = dose: 200.0 mg/kg/injection, schedule: Q04DX003 (ip), vehicle: saline with Tween-80
[3] = dose: 400.0 mg/kg/injection, schedule: Q04DX003 (ip), vehicle: saline with Tween-80
[4] = dose: 25.0 mg/kg/injection, schedule: Q01DX009 (ip), vehicle: saline with Tween-80
[5] = dose: 50.0 mg/kg/injection, schedule: Q01DX009 (ip), vehicle: saline with Tween-80
[6] = dose: 100.0 mg/kg/injection, schedule: Q01DX009 (ip), vehicle: Klucel (hydroxypropylcellulose) (HPC)
[7] = dose: 200.0 mg/kg/injection, schedule: Q01DX009 (ip), vehicle: Klucel (hydroxypropylcellulose) (HPC)
[8] = dose: 12.5 mg/kg/injection, schedule: Q01DX009 (ip), vehicle: saline with Tween-80
[9] = dose: 100.0 mg/kg/injection, schedule: Q01DX001 (ip), vehicle: saline with Tween-80
[10] = dose: 200.0 mg/kg/injection, schedule: Q01DX001 (ip), vehicle: saline with Tween-80
[11] = dose: 400.0 mg/kg/injection, schedule: Q01DX001 (ip), vehicle: saline with Tween-80

c1ccc(C2CC(c3ccc(C4=NN(c5ccccc5)C(c5ccccc5)C4)cc3)=NN2c2ccccc2)cc1 (stereo unspecified)
T/C (dose: 25.0 mg/kg/injection, schedule: Q04DX003 (ip), vehicle: saline with Tween-80): 102 % of control | T/C (dose: 50.0 mg/kg/injection, schedule: Q04DX003 (ip), vehicle: saline with Tween-80): 91 % of control | T/C [1]: 87 % of control | T/C [2]: 89 % of control | T/C [3]: 100 % of control

Cc1cc(NC(=S)SC(C)C)ccc1Br
T/C (dose: 50.0 mg/kg/injection, schedule: Q01DX009 (ip), vehicle: suspension in saline): 100 % of control | T/C (dose: 100.0 mg/kg/injection, schedule: Q01DX009 (ip), vehicle: suspension in saline): 101 % of control | T/C (dose: 200.0 mg/kg/injection, schedule: Q01DX009 (ip), vehicle: suspension in saline): 100 % of control

CN(C)c1nc(N)nc(Nc2ccc(Br)cc2)c1N=O
T/C [4]: 100 % of control | T/C [5]: 91 % of control | T/C [6]: 113 % of control | T/C (dose: 100.0 mg/kg/injection, schedule: Q01DX009 (ip), vehicle: saline with Tween-80): 100 % of control | T/C [1]: 108 % of control | T/C [7]: 109 % of control | T/C [2]: 95 % of control | T/C (dose: 400.0 mg/kg/injection, schedule: Q01DX009 (ip), vehicle: Klucel (hydroxypropylcellulose) (HPC)): 95 % of control | T/C [3]: 95 % of control

CCC(=O)[O][Sn]([CH3])([CH3])[O][Sn]([CH3])([CH3])[O]C(=O)CC
T/C (dose: 6.25 mg/kg/injection, schedule: Q01DX005 (ip), vehicle: saline): 117 % of control | T/C (dose: 12.5 mg/kg/injection, schedule: Q01DX005 (ip), vehicle: saline): 117 % of control and 118 % of control | T/C (dose: 25.0 mg/kg/injection, schedule: Q01DX005 (ip), vehicle: saline): 120 % of control

CCOC(=O)CC(=O)C(F)(F)F.[Cu+2]
T/C (dose: 2.5 mg/kg/injection, schedule: Q01DX009 (ip), vehicle: saline with Tween-80): 100 % of control | T/C (dose: 5.0 mg/kg/injection, schedule: Q01DX009 (ip), vehicle: saline with Tween-80): 115 % of control | T/C (dose: 10.0 mg/kg/injection, schedule: Q01DX009 (ip), vehicle: saline with Tween-80): 110 % of control

BrC1C2CCC3OC3CCC12 (stereo unspecified)
T/C [1]: 101 % of control | T/C [2]: 92 % of control | T/C [3]: 97 % of control

CCCC(=O)C(=O)c1ccc(O)cc1O
T/C (dose: 50.0 mg/kg/injection, schedule: Q01DX009 (ip), vehicle: Klucel (hydroxypropylcellulose) (HPC)): 108 % of control | T/C [6]: 116 % of control | T/C [7]: 119 % of control

CCN=NNc1ccc([N+](=O)[O-])cc1
T/C (dose: 12.5 mg/kg/injection, schedule: Q01DX009 (ip), vehicle: distilled water + Tween-80): 95 % of control | T/C (dose: 25.0 mg/kg/injection, schedule: Q01DX009 (ip), vehicle: distilled water + Tween-80): 100 % of control | T/C (dose: 50.0 mg/kg/injection, schedule: Q01DX009 (ip), vehicle: distilled water + Tween-80): 105 % of control | T/C (dose: 100.0 mg/kg/injection, schedule: Q01DX009 (ip), vehicle: distilled water + Tween-80): 100 % of control | T/C (dose: 200.0 mg/kg/injection, schedule: Q01DX009 (ip), vehicle: distilled water + Tween-80): 112 % of control

N=C(N)c1ccc(-c2ccc(-c3ccc(C(=N)N)cc3)s2)cc1
T/C (dose: 12.5 mg/kg/injection, schedule: Q04DX003 (ip), vehicle: suspension in saline): 106 % of control | T/C (dose: 25.0 mg/kg/injection, schedule: Q04DX003 (ip), vehicle: suspension in saline): 120 % of control | T/C (dose: 100.0 mg/kg/injection, schedule: Q04DX003 (ip), vehicle: suspension in saline): 169 % of control

O=C1NNC(c2ccccc2)C1(Cl)Cl (stereo unspecified)
T/C [8]: 101 % of control | T/C [5]: 99 % of control

CCCN(CCNc1cc(OC)cc2cccnc12)C(C)CC (stereo unspecified)
T/C (dose: 50.0 mg/kg/injection, schedule: Q01DX005 (ip), vehicle: saline): 107 % of control | T/C (dose: 100.0 mg/kg/injection, schedule: Q01DX005 (ip), vehicle: saline): 92 % of control

Cc1cc(-c2ccc(N=Nc3c(C)nn(-c4ccc(S(=O)(=O)O)cc4)c3O)c(C)c2)ccc1N=Nc1ccc(O)c(C(=O)O)c1
T/C (dose: 6.25 mg/kg/injection, schedule: Q01DX009 (ip), vehicle: saline with Tween-80): 100 % of control | T/C [8]: 101 % of control | T/C [4]: 93 % of control

CC#CS(=O)C#CC
T/C (dose: 3.12 mg/kg/injection, schedule: Q01DX009 (ip), vehicle: distilled water + alcohol): 105 % of control | T/C (dose: 6.25 mg/kg/injection, schedule: Q01DX009 (ip), vehicle: distilled water + alcohol): 105 % of control

COc1ccc2c(c1)CN(Cc1ccccc1)CO2
T/C (dose: 60.0 mg/kg/injection, schedule: Q01DX005 (ip), vehicle: saline with Tween-80): 104 % of control | T/C (dose: 120.0 mg/kg/injection, schedule: Q01DX005 (ip), vehicle: saline with Tween-80): 105 % of control | T/C (dose: 240.0 mg/kg/injection, schedule: Q01DX005 (ip), vehicle: saline with Tween-80): 102 % of control

CCC1=CC2CN(CCc3c([nH]c4ccccc34)C(C(=O)OC)(c3cc4c(cc3OC)N(C)C3C(C(=O)OC)=CC5(CC)CCCN6CCC43C65)C2)C1 (stereo unspecified)
T/C (dose: 12.5 mg/kg/injection, schedule: Q01DX001 (ip), vehicle: water): 100 % of control | T/C (dose: 25.0 mg/kg/injection, schedule: Q01DX001 (ip), vehicle: water): 100 % of control | T/C (dose: 50.0 mg/kg/injection, schedule: Q01DX001 (ip), vehicle: water): 112 % of control | T/C (dose: 100.0 mg/kg/injection, schedule: Q01DX001 (ip), vehicle: water): 100 % of control | T/C (dose: 200.0 mg/kg/injection, schedule: Q01DX001 (ip), vehicle: water): 100 % of control

C/C(=C\c1ccc([N+](=O)[O-])cc1)C(=O)NC(C)C
T/C (dose: 50.0 mg/kg/injection, schedule: Q01DX005 (ip), vehicle: other): 102 % of control | T/C (dose: 100.0 mg/kg/injection, schedule: Q01DX005 (ip), vehicle: other): 93 % of control | T/C (dose: 200.0 mg/kg/injection, schedule: Q01DX005 (ip), vehicle: other): 105 % of control

O=C(Oc1ccccc1)c1cc(O)c(O)c(O)c1
T/C (dose: 25.0 mg/kg/injection, schedule: Q01DX005 (ip), vehicle: saline with Tween-80): 100 % of control and 95 % of control | T/C (dose: 50.0 mg/kg/injection, schedule: Q01DX005 (ip), vehicle: saline with Tween-80): 100 % of control and 101 % of control | T/C (dose: 100.0 mg/kg/injection, schedule: Q01DX005 (ip), vehicle: saline with Tween-80): 99 % of control and 100 % of control | T/C (dose: 200.0 mg/kg/injection, schedule: Q01DX005 (ip), vehicle: saline with Tween-80): 101 % of control and 116 % of control | T/C (dose: 400.0 mg/kg/injection, schedule: Q01DX005 (ip), vehicle: saline with Tween-80): 109 % of control

NC(=O)N/N=c1/oc2ccccc2cc1C(N)=O
T/C (dose: 100.0 mg/kg/injection, schedule: Q04DX002 (ip), vehicle: saline): 98 % of control | T/C (dose: 200.0 mg/kg/injection, schedule: Q04DX002 (ip), vehicle: saline): 98 % of control | T/C (dose: 400.0 mg/kg/injection, schedule: Q04DX002 (ip), vehicle: saline): 96 % of control

C=C[C@H]1[C@H](OC2OC(CO)C(O)C(O)C2O)OC=C2C(=O)N3CCc4c([nH]c5ccccc45)C3C[C@H]21 (stereo partly specified)
T/C [9]: 107 % of control | T/C [10]: 94 % of control | T/C [11]: 89 % of control

O=CNC(Cc1ccc(N(CCCl)CCCl)cc1)C(=O)O (stereo unspecified)
T/C (dose: 6.25 mg/kg/injection, schedule: Q01DX009 (ip), vehicle: saline sonified): 159 % of control | T/C (dose: 6.6 mg/kg/injection, schedule: Q04DX003 (ip), vehicle: saline): 170 % of control | T/C (dose: 10.0 mg/kg/injection, schedule: Q04DX003 (ip), vehicle: saline): 160 % of control | T/C (dose: 12.5 mg/kg/injection, schedule: Q01DX009 (ip), vehicle: saline sonified): 168 % of control | T/C (dose: 15.0 mg/kg/injection, schedule: Q04DX003 (ip), vehicle: saline): 170 % of control | T/C (dose: 25.0 mg/kg/injection, schedule: Q01DX009 (ip), vehicle: saline sonified): 213 % of control

COc1ccc(/C=N/Nc2nnc3c4ccccc4n(C)c3n2)cc1
T/C [9]: 89 % of control | T/C [10]: 91 % of control | T/C [11]: 107 % of control

CN(Cc1cnc2nc(N)nc(N)c2n1)c1ccc(C(=O)NC(CCC(=O)OCc2c(Cl)cccc2Cl)C(=O)OCc2c(Cl)cccc2Cl)cc1 (stereo unspecified)
T/C (dose: 3.75 mg/kg/injection, schedule: Q01DX005 (ip), vehicle: saline with Tween-80): 168 % of control | T/C (dose: 7.5 mg/kg/injection, schedule: Q01DX005 (ip), vehicle: saline with Tween-80): 207 % of control and 237 % of control | T/C (dose: 15.0 mg/kg/injection, schedule: Q01DX005 (ip), vehicle: saline with Tween-80): 105 % of control and 92 % of control | T/C (dose: 30.0 mg/kg/injection, schedule: Q01DX005 (ip), vehicle: saline with Tween-80): 87 % of control

From PubChem BioAssay AID330 (DTP/NCI, 2004)
